Measured values taken from article PMC8155176, “Reversible modulation of circadian time with chronophotopharmacology” (Nature Communications, 2021).
“Also recorded” adds a separate entry of the source. Like-named read-outs stand apart in the source and are kept apart here.

Columns and labels:
[1] = test system: U2OS cells; experiment: Circadian period assay in Bmal1-dLuc U2OS reporter cells; type: cell-based, human
Description: Next, we tested if the observed light-dependent CKIα inhibition translates into photomodulation of the circadian period in human U2OS cells (Fig. 2d). The Bmal1-dLuc reporter cell line contains the coding sequence of destabilized luciferase driven by the Bmal1 gene promoter sequence. The cell culture medium for luminescence recording includes a high concentration of luciferin (0.2 mM), a substrate for luciferase, which strongly absorbs UV light (Supplementary Fig. 30). […] As the circadian period change is directly correlated with the potency and concentration of the inhibitor[10], the cells were treated with photoswitchable modulators using a broad range of concentrations.
In comparison to the kinase assay, the direct use of UV light for preventing a thermal back-isomerization of the cis-isomer was not feasible due to the cell-damaging effect and the presence of luciferin in the medium. Therefore, the modulators were kept in the dark or photo-isomerized in DMSO prior to the addition, without further irradiation during the circadian assay. All three modulators lengthened the period in the U2OS cells both in the dark and upon irradiation (Fig. 2d). […] Altogether, based on the efficient generation of the cis-isomer under irradiation, retained potency and promising light-modulation of CKIα inhibition, the meta-substituted modulator 4 was identified as representing lead substitution pattern for further investigation.
Stable U2OS reporter cells harboring Bmal1-dLuc reporter were suspended in phenol red-free culture medium [DMEM (D2902, Sigma) supplemented with 10% fetal bovine serum, 3.5 mg/mL D-glucose, 3.7 mg/mL sodium bicarbonate, 0.29 mg/mL L-glutamine, 100 units/mL penicillin, and 100 µg/mL streptomycin] and plated onto a white, solid-bottom 384-well plates at 30 µL (3000 cells) per well. After 2 days, 40 µL of phenol red-free explant medium [DMEM (D2902, Sigma) supplemented with 2% B27 (Gibco), 10 mM HEPES, 3.5 mg/mL D-glucose, 0.38 mg/mL sodium bicarbonate, 0.29 mg/mL L-glutamine, 100 units/mL penicillin, 100 µg/mL streptomycin, and 0.2 mM luciferin; pH 7.2] was dispensed into each well, followed by the application of 0.5 μL of compounds (dissolved in DMSO; final 0.7% DMSO; pre-irradiated with UV for 60 min, white LED for 10 min, and/or green LED for 60 min when indicated). The plate was covered with an optically clear film, and subjected to irradiation with 530 nm LED lamp (3 × 550 mW, λmax = 530 nm, FWHM 36 nm, Sahlmann Photochemical Solutions) or 400 nm LED lamp (3 × 1000 mW, λmax = 400 nm, FWHM 11.9 nm, Sahlmann Photochemical Solutions) from 12 cm distance for 30 min. Compound handling and irradiation were conducted in a dark room under red lamp illumination. Luminescence was recorded every 100 min in a microplate reader, Infinite M200Pro (Tecan). For the phase control experiments, cellular light irradiation was performed in a dark 32 °C room and luminescence was recorded in a microplate reader Synergy H1 (BioTek) placed in the same room, to avoid possible effect of transient temperature change on the phase. Circadian period and phase were determined from luminescence rhythms by a curve fitting program MultiCycle (Actimetrics). Data from the first day was excluded from analysis, because of transient changes in luminescence upon medium change. Statistical significance was evaluated using two-way analysis of variance (ANOVA) followed by a Sidak’s multiple comparisons test or one-way ANOVA followed by a Tukey’s multiple comparisons test using Prism software (GraphPad Software).

[2] = Solubility test in kinase assay buffer and cell culture medium; type: physicochemical
Description: Solubility studies were performed in kinase assay buffer and cell culture medium. Half of the solutions of the compounds in DMSO was thermally adapted (‘Dark’) and the other half was irradiated for 1 h with UV light (λmax = 365 nm, ‘Light’) green light in case of 9 (λmax = 530 nm, ‘Light’). Solubility is indicated in the Supplementary Table 1. […]
precipitation were excluded from the dose-response curves in the enzymatic assay .
Supplementary Table 1. Solubility of the photos witchable compounds in the highest concentrations that were used in the enzymatic assay.
Kinase assay buffer Cell culture medium […]

[3] = target: T1, CKIα (Homo sapiens, UniProt P48729); experiment: In vitro kinase assay (Kinase Glo), CKIα; type: biochemical; details: for light dependence of CKIα inhibition (in words): UV light 365 nm vs dark; for fold difference in CKIα inhibition between dark and UV-irradiated sample: trans vs cis-enriched (365 nm), 5 is stronger under light, the others weaker
T1 construct: purchased Invitrogen PV3850
T1 sequence (P48729 whole entry): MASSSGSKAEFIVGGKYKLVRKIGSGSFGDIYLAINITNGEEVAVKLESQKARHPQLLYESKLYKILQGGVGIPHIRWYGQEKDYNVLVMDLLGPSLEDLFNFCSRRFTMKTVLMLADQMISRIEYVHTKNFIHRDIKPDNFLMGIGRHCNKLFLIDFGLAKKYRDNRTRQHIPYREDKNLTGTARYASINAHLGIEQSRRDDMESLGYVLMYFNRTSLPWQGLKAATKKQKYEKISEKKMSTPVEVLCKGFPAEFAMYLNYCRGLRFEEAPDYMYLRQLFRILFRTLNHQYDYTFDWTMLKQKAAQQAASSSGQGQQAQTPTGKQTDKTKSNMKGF
Description: A stock solution of 7.4 mM in DMSO was prepared and thermally adapted by heating to c.a. 100 °C for 1 min. Two series of eight samples were prepared with consecutive three-time dilutions from the stock solution. One of the series (‘dark’ samples) was prepared in dark Eppendorf tube, the other series (‘light’ samples) was pre-irradiated with UV light (365 nm, UV lamp Spectroline, ENB-280/FE, 1 × 8 Watt) for 45 min. For compound 9, 1 mM solution in DMSO was thermally adapted by heating to 80 °C for 2 min and split into two vials. One vial was kept in the dark and the other was irradiated with green light (530 nm, 3x Nichia NCSG219B-V1, 3 × 550 mW, Sahlmann Photochemical Solutions) for 60 min. Both dark-kept and irradiated samples were subjected to 8-point 3-fold dilutions. All the solutions were applied to the well plate under a red lamp in the dark room in order to prevent ambient-light-induced photo-isomerization.
The assays were performed on a white, solid-bottom 384-well plates. The total volume for the reaction is 10.5 µl. Firstly, a solution of CKI and peptide was added to the bottom of the well (9 µL). Next, a corresponding solution of the compound (0.5 μL, final 5% DMSO) followed by 50 μM ATP solution (1 μL) were pipetted into the upper corners of each well. The enzymatic reaction was started by spinning down the plate (1800 x g, 2 min).
By employing this method, all reactions were started at the same time, minimizing variance between different samples. Incubation for 3 h at 30 °C or 2 h at 37 °C allowed for the enzymatic phosphorylation of the substrate peptide. As the reaction started, the wells with ‘light’ samples were irradiated with UV light or kept in dark in case of experiment with compound 9. ‘Dark’ (0 min pre-irradiation) wells were covered with an aluminum sticker from the beginning. After the incubation, 10 μL Kinase Glo® (Promega) was applied into the wells and the luminescent signal was recorded by a plate reader (BioTek Synergy H1 or Cytation).
The total volume for the reaction was 10.5 µl. The reaction mixture contained the following: for CKIδ, 4 ng/µl CKIδ (14-520, Eurofins), 50 µM peptide substrate RKKKAEpSVASLTSQCSYSS corresponding to human PER2 Lys659-Ser674, and CKI buffer (40 mM Tris, 10 mM MgCl2, 0.5 mM DTT, 0.1 mg/ml BSA, pH7.4); for CKIα, 1 ng/µl CKIα (PV3850, Invitrogen), 50 µM CKI peptide substrate (60547-1, Anaspec), and CKI buffer.
The data obtained from the in vitro kinase assay was analyzed using GraphPad software, in which the luminescence outcome is normalized. Normalization is done using a luminescent output of the control that contained high concentration of longdaysin (370 µM) as 100% inhibition and DMSO for 0% inhibition. In all graphs, a dose-response fit was used to obtain

[4] = Chemical stability under dark and irradiation conditions followed by LCMS; type: physicochemical; details: 40 µM in kinase assay buffer or cell culture medium, dark, 365 nm 3 h, 400 nm 30 min
Description: LCMS traces of stability studies
Supplementary Figure 8. Chemical stability of compound 3 under dark and irradiation conditions followed by LCMS. All the samples were prepared as 40 µM solution in buffer or cell culture medium. ‘Buffer’ and ‘medium’ samples were injected immediately upon dissolving compound 3, ‘buffer_3h_dark’ was injected after 3 h of keeping the solution in dark, ‘buffer_3h_365nm’ after irradiation of the sample for 3 h with UV light in kinase assay buffer, and ‘medium_30min_400nm’ after 30 min of irradiation with 400 nm in cell culture medium. The trans-isomer was followed at the retention time of 10.41-10.47 min and the cis-isomer at the retention time of 8.84-8.90 min. Mass spectra of both isomers in different […]
(1 picture or pasted object on this page, not shown here)

[5] = irradiated with UV light (365 nm) before and during the assay, cis-enriched, read-out: CKIα IC50, light
[6] = thermally adapted trans-isomer kept in the dark, read-out: CKIα IC50, dark

| IC50 [3, 5] [µM] | IC50 [3, 6] [µM] | fold difference in CKIα inhibition between dark and UV-irradiated sample [3] | Structure (SMILES) | light-induced change of period lengthening ([1]; 72 μM, UV pre-irradiated vs dark) | solubility in aqueous media (in words) [2] | chemical stability (reduction or oxidation of the azo group) [4] | light-induced deactivation of period lengthening ([1]; 3 μM, UV pre-irradiated vs dark) | light dependence of CKIα inhibition (in words) [3] | period lengthening in U2OS cells ([1]; 24 μM) [h] | light-modulation of period lengthening ([1]; 24 μM, UV pre-irradiated vs dark) | effect of UV light irradiation on period lengthening ([1]; UV (365 nm) pre-irradiated) | recovery of biological activity upon back-isomerization with white light ([1]; UV light followed by white light) | period lengthening effect under dark conditions ([1]; dark) | influence of green or violet light on the period change ([1]; control experiment) |
| --- | --- | --- | --- | --- | --- | --- | --- | --- | --- | --- | --- | --- | --- | --- |
| 13.3 | 2.8 | 5 fold | COc1ccc(/N=N/c2cccc(CNc3ncnc4c3ncn4C(C)C)c2)cc1 [Compound 6] |  | increased solubility | Products of reduction or oxidation were not observed |  |  |  |  |  |  |  |  |
| 4.5 | 3.6 |  | CC(C)n1cnc2c(NCc3ccc(/N=N/c4ccccc4)cc3)ncnc21 [Compound 3] |  |  | Products of reduction or oxidation were not observed |  | no obvious light-dependent changes of CKIα inhibition | 4 | no light-modulation |  |  |  |  |

Continued, molecule first:

| Structure (SMILES) | IC50 [3, 5] [µM] | IC50 [3, 6] [µM] | fold difference in CKIα inhibition between dark and UV-irradiated sample [3] | light-induced change of period lengthening ([1]; 72 μM, UV pre-irradiated vs dark) | solubility in aqueous media (in words) [2] | chemical stability (reduction or oxidation of the azo group) [4] | light-induced deactivation of period lengthening ([1]; 3 μM, UV pre-irradiated vs dark) | light dependence of CKIα inhibition (in words) [3] | period lengthening in U2OS cells ([1]; 24 μM) [h] | light-modulation of period lengthening ([1]; 24 μM, UV pre-irradiated vs dark) | effect of UV light irradiation on period lengthening ([1]; UV (365 nm) pre-irradiated) | recovery of biological activity upon back-isomerization with white light ([1]; UV light followed by white light) | period lengthening effect under dark conditions ([1]; dark) | influence of green or violet light on the period change ([1]; control experiment) |
| --- | --- | --- | --- | --- | --- | --- | --- | --- | --- | --- | --- | --- | --- | --- |
| CC(C)n1cnc2c(NCc3ccccc3/N=N/c3ccccc3)ncnc21 [Compound 5] | 54 | 96 |  | weak activation | solubility issues at high concentrations | Products of reduction or oxidation were not observed |  |  |  |  |  |  |  |  |
| CC(C)n1cnc2c(NCc3cccc(/N=N/c4ccccc4)c3)ncnc21 [Compound 4] | 8.6 | 1.9 | 4.5 fold |  |  | Products of reduction or oxidation were not observed | ca. 2 h | substantial light-induced inactivation |  |  |  |  |  |  |
| CC(C)n1cnc2c(NCc3cccc(/N=N/c4c(F)cccc4F)c3)ncnc21 [Compound 7] | 9.3 | 2.4 | four times less potent |  |  | Products of reduction or oxidation were not observed; also recorded: both chemical and photochemical stability |  |  |  |  | suppressed by UV light irradiation; also recorded: most pronounced period lengthening deactivation | partial recovery | strong period lengthening effect |  |
| CC(C)n1cnc2c(NCc3cccc(C(F)(F)F)c3)ncnc21 [longdaysin, reference compound] | 4.3 |  |  |  |  |  |  | negligible effect of UV irradiation on the potency |  |  |  |  |  | negligible influence |
